Experimental data published in patent US20240024488A1, “COMPOUNDS AND USES THEREOF” (Foghorn Therapeutics Inc., priority 2020, published 2024).

Columns and labels:
HiBit-BRM fusion protein = target: T1, HiBit-BRM fusion protein (Homo sapiens, UniProt P51531); assay: HiBiT-BRM cell-based degradation assay (Nano-Glo HiBiT Lytic Detection, 24 h); conditions: HeLa cell line expressing HiBiT-BRM; for DC50: read-out: BRM HiBit Degradation IC50
T1 construct: expressed in transfected cells
Procedure, shortened: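 Stable HiBiT-BRM HeLa line; 24 h compound exposure, top final 30 μM, 3-fold, 10 pts in duplicate. Lytic HiBiT/LgBiT luminescence readout. % degradation vs DMSO (0%) and 2 μM known BRM/BRG1 degrader (100%).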

[1] = target: T2, HiBit-BRG1 fusion protein (Homo sapiens, UniProt P51532); assay: HiBiT-BRG1 cell-based degradation assay (Nano-Glo HiBiT Lytic Detection, 24 h); conditions: HeLa cell line expressing HiBit-BRG1 and LgBit; for Dmax: read-out: BRG1 HiBit Degradation Maximum (%); for DC50: read-out: BRMG1 HiBit Degradation IC50
T2 construct: expressed in transfected cells
T2 sequence (P51532 whole entry, the tested form may be a part): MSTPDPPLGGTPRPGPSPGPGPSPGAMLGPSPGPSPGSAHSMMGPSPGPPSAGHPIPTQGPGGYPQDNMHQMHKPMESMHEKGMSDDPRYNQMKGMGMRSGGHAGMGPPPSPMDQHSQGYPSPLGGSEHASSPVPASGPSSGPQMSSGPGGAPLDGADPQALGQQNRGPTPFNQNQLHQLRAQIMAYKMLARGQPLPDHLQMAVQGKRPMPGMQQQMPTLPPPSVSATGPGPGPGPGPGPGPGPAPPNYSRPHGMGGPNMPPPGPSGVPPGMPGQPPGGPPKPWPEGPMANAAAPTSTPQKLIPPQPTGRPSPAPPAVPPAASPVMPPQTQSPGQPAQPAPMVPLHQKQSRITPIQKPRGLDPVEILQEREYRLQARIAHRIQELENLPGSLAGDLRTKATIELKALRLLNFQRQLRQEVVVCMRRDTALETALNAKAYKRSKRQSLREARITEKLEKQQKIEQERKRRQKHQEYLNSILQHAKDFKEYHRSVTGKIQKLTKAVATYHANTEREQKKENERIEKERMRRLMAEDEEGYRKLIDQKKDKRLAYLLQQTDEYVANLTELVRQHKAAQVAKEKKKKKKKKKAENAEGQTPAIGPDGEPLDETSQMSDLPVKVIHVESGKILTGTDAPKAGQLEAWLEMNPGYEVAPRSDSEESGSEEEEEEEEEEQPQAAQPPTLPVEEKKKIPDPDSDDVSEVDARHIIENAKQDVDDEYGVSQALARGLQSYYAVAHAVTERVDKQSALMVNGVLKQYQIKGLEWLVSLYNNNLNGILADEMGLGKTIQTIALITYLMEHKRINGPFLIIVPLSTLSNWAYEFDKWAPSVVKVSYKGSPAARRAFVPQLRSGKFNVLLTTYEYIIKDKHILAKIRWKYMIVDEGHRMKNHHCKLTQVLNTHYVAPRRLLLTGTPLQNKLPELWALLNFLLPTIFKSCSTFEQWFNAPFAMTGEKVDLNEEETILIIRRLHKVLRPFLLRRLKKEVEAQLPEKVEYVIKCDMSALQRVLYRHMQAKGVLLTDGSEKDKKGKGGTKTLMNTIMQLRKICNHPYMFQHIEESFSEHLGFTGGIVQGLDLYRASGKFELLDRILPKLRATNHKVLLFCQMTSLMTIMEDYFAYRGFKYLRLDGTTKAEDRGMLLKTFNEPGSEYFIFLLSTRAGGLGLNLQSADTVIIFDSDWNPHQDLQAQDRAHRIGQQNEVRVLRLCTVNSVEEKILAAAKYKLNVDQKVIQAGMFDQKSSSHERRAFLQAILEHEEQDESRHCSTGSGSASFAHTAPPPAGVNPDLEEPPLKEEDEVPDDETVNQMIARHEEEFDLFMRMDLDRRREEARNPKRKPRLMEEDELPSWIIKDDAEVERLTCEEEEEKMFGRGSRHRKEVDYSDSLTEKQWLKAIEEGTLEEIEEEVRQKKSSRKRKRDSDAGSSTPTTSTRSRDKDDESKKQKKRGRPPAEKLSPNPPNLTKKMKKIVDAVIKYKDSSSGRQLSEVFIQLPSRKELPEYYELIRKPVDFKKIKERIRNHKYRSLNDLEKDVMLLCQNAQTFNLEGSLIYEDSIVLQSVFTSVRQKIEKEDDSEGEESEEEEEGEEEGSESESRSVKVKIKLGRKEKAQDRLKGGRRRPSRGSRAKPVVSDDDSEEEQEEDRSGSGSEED
Procedure, shortened: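 Luminescence from Nano-Glo HiBiT lytic detection, read after 24 h compound exposure, scored degradation in a stable HeLa HiBiT-BRG1/LgBit line seeded at 5000 cells/well. DMSO wells defined 0% and 2 μM known BRM/BRG1 degrader wells defined full degradation.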

T1 sequence (P51531 whole entry, the tested form may be a part): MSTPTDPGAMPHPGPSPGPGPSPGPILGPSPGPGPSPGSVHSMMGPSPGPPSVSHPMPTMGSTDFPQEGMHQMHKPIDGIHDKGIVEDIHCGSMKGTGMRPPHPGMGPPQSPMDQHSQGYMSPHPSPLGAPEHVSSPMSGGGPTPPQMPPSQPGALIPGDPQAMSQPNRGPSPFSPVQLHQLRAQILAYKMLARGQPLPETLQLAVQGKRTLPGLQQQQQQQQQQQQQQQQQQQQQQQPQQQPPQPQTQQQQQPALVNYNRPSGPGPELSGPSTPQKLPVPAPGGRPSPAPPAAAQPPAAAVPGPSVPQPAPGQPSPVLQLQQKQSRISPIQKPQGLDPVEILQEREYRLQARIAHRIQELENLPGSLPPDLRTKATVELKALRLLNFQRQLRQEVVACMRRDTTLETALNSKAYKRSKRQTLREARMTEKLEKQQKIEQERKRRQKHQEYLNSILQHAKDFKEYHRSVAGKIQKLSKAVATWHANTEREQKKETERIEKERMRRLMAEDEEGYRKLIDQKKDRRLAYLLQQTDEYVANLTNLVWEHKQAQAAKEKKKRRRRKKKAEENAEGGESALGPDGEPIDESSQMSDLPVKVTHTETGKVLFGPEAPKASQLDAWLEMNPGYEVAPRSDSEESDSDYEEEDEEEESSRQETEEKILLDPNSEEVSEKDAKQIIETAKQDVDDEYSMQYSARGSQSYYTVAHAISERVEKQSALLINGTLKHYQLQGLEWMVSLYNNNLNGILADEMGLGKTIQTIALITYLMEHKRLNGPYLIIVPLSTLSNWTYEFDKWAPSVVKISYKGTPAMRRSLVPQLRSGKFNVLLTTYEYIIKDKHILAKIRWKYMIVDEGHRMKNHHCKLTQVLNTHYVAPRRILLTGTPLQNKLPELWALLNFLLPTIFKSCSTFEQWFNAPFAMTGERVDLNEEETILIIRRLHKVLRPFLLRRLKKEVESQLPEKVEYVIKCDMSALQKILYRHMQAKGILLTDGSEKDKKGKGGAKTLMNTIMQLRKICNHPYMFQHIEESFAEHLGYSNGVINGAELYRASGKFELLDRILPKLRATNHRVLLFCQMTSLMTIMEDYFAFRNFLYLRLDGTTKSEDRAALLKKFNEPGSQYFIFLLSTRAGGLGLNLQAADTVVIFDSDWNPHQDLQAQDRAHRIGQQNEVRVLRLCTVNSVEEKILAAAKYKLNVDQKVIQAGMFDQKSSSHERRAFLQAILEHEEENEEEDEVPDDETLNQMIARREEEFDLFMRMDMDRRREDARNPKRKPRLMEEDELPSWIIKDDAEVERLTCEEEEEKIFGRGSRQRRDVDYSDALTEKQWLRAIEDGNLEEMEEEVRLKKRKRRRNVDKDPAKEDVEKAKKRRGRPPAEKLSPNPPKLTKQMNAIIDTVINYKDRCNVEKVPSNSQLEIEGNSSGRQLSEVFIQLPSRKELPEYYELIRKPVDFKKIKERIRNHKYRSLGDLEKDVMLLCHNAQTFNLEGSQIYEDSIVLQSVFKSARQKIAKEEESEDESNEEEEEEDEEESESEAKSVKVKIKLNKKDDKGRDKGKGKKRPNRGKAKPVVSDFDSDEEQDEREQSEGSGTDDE

Row | Dmax [1] | DC50 (HiBit-BRM fusion protein) | DC50 [1] | SMILES | BRM HiBit Degradation Maximum (%) (HiBit-BRM fusion protein)
1 | > 75% | > 10 nM | > 10 nM | Cc1ncsc1-c1ccc([C@H](C)NC(=O)[C@@H]2C[C@@H](O)CN2C(=O)[C@@H](c2cc(OCCN(C)C34CC(c5cc6cc(-c7ccccc7O)nnc6[nH]5)(C3)C4)no2)C(C)C)cc1 (racemic) [Compound 302, (2S,4R)-4-hydroxy-1-((R)-2-(3-(2-((3-(3-(2-hydroxyphenyl)-7H-pyrrolo[2,3-c]pyridazin-6-yl)bicyclo[1.1.1]pentan-1-yl)(methyl)amino)ethoxy)isoxazol-5-yl)-3-methylbutanoyl)-N-((S)-1-(4-(4-methylthiazol-5-yl)phenyl)ethyl)pyrrolidine-2-carboxamide] | A (“A” indicates maximum degradation ≥ 75%)
2 | < 50% | – | – | Cc1ncsc1-c1ccc([C@H](C)NC(=O)[C@@H]2C[C@@H](O)CN2C(=O)[C@@H](c2cc(OCCN3CCc4[nH]c5nnc(-c6ccccc6O)cc5c4C3)no2)C(C)C)cc1 (racemic) [Compound 303, (2S,4R)-4-hydroxy-1-((R)-2-(3-(2-(3-(2-hydroxyphenyl)-5,7,8,9-tetrahydro-6H-pyrido[3′,4′:4,5]pyrrolo[2,3-c]pyridazin-6-yl)ethoxy)isoxazol-5-yl)-3-methylbutanoyl)-N-((S)-1-(4-(4-methylthiazol-5-yl)phenyl)ethyl)pyrrolidine-2-carboxamide] | C (“C” indicates maximum degradation < 50%)
3 | > 75% | > 10 nM | > 100 nM | Cc1ncsc1-c1ccc([C@H](C)NC(=O)[C@@H]2C[C@@H](O)CN2C(=O)[C@@H](c2cc(OCCN3CC4(CC(c5c[nH]c6nnc(-c7ccccc7O)cc56)C4)C3)no2)C(C)C)cc1 (racemic) [Compound 304, (2S,4R)-4-hydroxy-1-((R)-2-(3-(2-(6-(3-(2-hydroxyphenyl)-7H-pyrrolo[2,3-c]pyridazin-5-yl)-2-azaspiro[3.3]heptan-2-yl)ethoxy)isoxazol-5-yl)-3-methylbutanoyl)-N-((S)-1-(4-(4-methylthiazol-5-yl)phenyl)ethyl)pyrrolidine-2-carboxamide] | A (“A” indicates maximum degradation ≥ 75%)
4 | < 50% | > 1000 nM | – | Cc1ncsc1-c1ccc([C@H](C)NC(=O)[C@@H]2C[C@@H](O)CN2C(=O)[C@@H](c2cc(OCC(=O)N3CC(c4cc5cc(-c6ccccc6O)nnc5[nH]4)C3)no2)C(C)C)cc1 (racemic) [Compound 305, (2S,4R)-4-hydroxy-1-((R)-2-(3-(2-(3-(3-(2-hydroxyphenyl)-7H-pyrrolo[2,3-c]pyridazin-6-yl)azetidin-1-yl)-2-oxoethoxy)isoxazol-5-yl)-3-methylbutanoyl)-N-((S)-1-(4-(4-methylthiazol-5-yl)phenyl)ethyl)pyrrolidine-2-carboxamide] | A (“A” indicates maximum degradation ≥ 75%)
5 | < 50% | – | – | Cc1ncsc1-c1ccc(CNC(=O)[C@@H]2C[C@@H](O)CN2C(=O)[C@@H](NC(=O)C(=O)N2CC(c3cc4cc(-c5ccccc5O)nnc4[nH]3)C2)C(C)(C)C)cc1 (racemic) [Compound 306, (2S,4R)-4-hydroxy-1-((S)-2-(2-(3-(3-(2-hydroxyphenyl)-7H-pyrrolo[2,3-c]pyridazin-6-yl)azetidin-1-yl)-2-oxoacetamido)-3,3-dimethylbutanoyl)-N-(4-(4-methylthiazol-5-yl)benzyl)pyrrolidine-2-carboxamide] | C (“C” indicates maximum degradation < 50%)
6 | > 75% | < 10 nM | > 10 nM | Cc1ncsc1-c1ccc([C@H](C)NC(=O)[C@@H]2C[C@@H](O)CN2C(=O)[C@@H](c2cc(OCCN3CC(c4[nH]c5nnc(-c6ccccc6O)cc5c4C)C3)no2)C(C)C)cc1 (racemic) [Compound 307, (2S,4R)-4-hydroxy-1-((R)-2-(3-(2-(3-(3-(2-hydroxyphenyl)-5-methyl-7H-pyrrolo[2,3-c]pyridazin-6-yl)azetidin-1-yl)ethoxy)isoxazol-5-yl)-3-methylbutanoyl)-N-((S)-1-(4-(4-methylthiazol-5-yl)phenyl)ethyl)pyrrolidine-2-carboxamide] | A (“A” indicates maximum degradation ≥ 75%)
7 | > 75% | < 10 nM | > 10 nM | Cc1ncsc1-c1ccc([C@H](C)NC(=O)[C@@H]2C[C@@H](O)CN2C(=O)[C@@H](c2cc(OCCN3C[C@@H]4[C@H](C3)[C@H]4c3cc4cc(-c5ccccc5O)nnc4[nH]3)no2)C(C)C)cc1 (racemic) [Compound 308, (2S,4R)-4-hydroxy-1-((R)-2-(3-(2-((1R,5S,6R)-6-(3-(2-hydroxyphenyl)-7H-pyrrolo[2,3-c]pyridazin-6-yl)-3-azabicyclo[3.1.0]hexan-3-yl)ethoxy)isoxazol-5-yl)-3-methylbutanoyl)-N-((S)-1-(4-(4-methylthiazol-5-yl)phenyl)ethyl)pyrrolidine-2-carboxamide] | A (“A” indicates maximum degradation ≥ 75%)

Second part, the molecule before the results:

Row | SMILES | Dmax [1] | DC50 (HiBit-BRM fusion protein) | DC50 [1] | BRM HiBit Degradation Maximum (%) (HiBit-BRM fusion protein)
8 | Cc1ncsc1-c1ccc(CNC(=O)[C@@H]2C[C@@H](O)CN2C(=O)[C@@H](NC(=O)CCCCN2CC(c3cc4cc(-c5ccccc5O)nnc4[nH]3)C2)C(C)(C)C)cc1 (racemic) [Compound 297, (2S,4R)-4-hydroxy-1-((S)-2-(5-(3-(3-(2-hydroxyphenyl)-7H-pyrrolo[2,3-c]pyridazin-6-yl)azetidin-1-yl)pentanamido)-3,3-dimethylbutanoyl)-N-(4-(4-methylthiazol-5-yl)benzyl)pyrrolidine-2-carboxamide] | < 50% | – | – | C (“C” indicates maximum degradation < 50%)
9 | Cc1ncsc1-c1ccc(CNC(=O)[C@@H]2C[C@@H](O)CN2C(=O)[C@@H](NC(=O)CCC(=O)NC23CC(c4cc5cc(-c6ccccc6O)nnc5[nH]4)(C2)C3)C(C)(C)C)cc1 (racemic) [Compound 298, N1-((S)-1-((2S,4R)-4-hydroxy-2-((4-(4-methylthiazol-5-yl)benzyl)carbamoyl)pyrrolidin-1-yl)-3,3-dimethyl-1-oxobutan-2-yl)-N4-(3-(3-(2-hydroxyphenyl)-7H-pyrrolo[2,3-c]pyridazin-6-yl)bicyclo[1.1.1]pentan-1-yl)succinamide] | < 50% | – | – | C (“C” indicates maximum degradation < 50%)
10 | Cc1ncsc1-c1ccc(CNC(=O)[C@@H]2C[C@@H](O)CN2C(=O)[C@@H](NC(=O)CCCCC(=O)NC23CC(c4cc5cc(-c6ccccc6O)nnc5[nH]4)(C2)C3)C(C)(C)C)cc1 (racemic) [Compound 299, N1-((S)-1-((2S,4R)-4-hydroxy-2-((4-(4-methylthiazol-5-yl)benzyl)carbamoyl)pyrrolidin-1-yl)-3,3-dimethyl-1-oxobutan-2-yl)-N6-(3-(3-(2-hydroxyphenyl)-7H-pyrrolo[2,3-c]pyridazin-6-yl)bicyclo[1.1.1]pentan-1-yl)adipamide] | < 50% | > 1000 nM | – | B (“B” indicates maximum degradation ≥ 50%)
11 | Cc1ncsc1-c1ccc([C@H](C)NC(=O)[C@@H]2C[C@@H](O)CN2C(=O)[C@@H](c2cc(OCCNCCN3CC(c4cc5cc(-c6ccccc6O)nnc5[nH]4)C3)no2)C(C)C)cc1 (racemic) [Compound 300] | > 50% | > 100 nM | – | A (“A” indicates maximum degradation ≥ 75%)
12 | Cc1ncsc1-c1ccc(CNC(=O)[C@@H]2C[C@@H](O)CN2C(=O)[C@@H](NC(=O)CCCC(=O)NC23CC(c4cc5cc(-c6ccccc6O)nnc5[nH]4)(C2)C3)C(C)(C)C)cc1 (racemic) [Compound 301, N1-((S)-1-((2S,4R)-4-hydroxy-2-((4-(4-methylthiazol-5-yl)benzyl)carbamoyl)pyrrolidin-1-yl)-3,3-dimethyl-1-oxobutan-2-yl)-N5-(3-(3-(2-hydroxyphenyl)-7H-pyrrolo[2,3-c]pyridazin-6-yl)bicyclo[1.1.1]pentan-1-yl)glutaramide] | < 50% | > 1000 nM | – | B (“B” indicates maximum degradation ≥ 50%)
13 | Cc1ncsc1-c1ccc([C@H](C)NC(=O)[C@@H]2C[C@@H](O)CN2C(=O)C(c2cc(OCCNC3(C(=O)O)CCc4[nH]c5nnc(-c6ccccc6O)cc5c4C3)no2)C(C)C)cc1 (relative stereo) [Compound 90, (6R*)-6-({2-[(5-{1-[(2S,4R)-4-hydroxy-2-{[(1S)-1-[4-(4-methyl-1,3-thiazol-5-yl)phenyl]ethyl]carbamoyl}pyrrolidin-1-yl]-3-methyl-1-oxobutan-2-yl}-1,2-oxazol-3-yl)oxy]ethyl}amino)-3-(2-hydroxyphenyl)-5H,7H,8H,9H-pyridazino[3,4-b]indole-6-carboxylic acid] | < 50% | > 1000 nM | – | A (“A” indicates maximum degradation ≥ 75%)
14 | Cc1ncsc1-c1ccc([C@H](C)NC(=O)[C@@H]2C[C@@H](O)CN2C(=O)[C@@H](c2cc(C3CCN(C(=O)[C@@]4(N)CCc5[nH]c6nnc(-c7ccccc7O)cc6c5C4)CC3)no2)C(C)C)cc1 (relative stereo) [Compound 103, (2S,4R)-1-[(2R)-2-(3-{1-[(6R*)-6-amino-3-(2-hydroxyphenyl)-5H,7H,8H,9H-pyridazino[3,4-blindole-6-carbonyl]piperidin-4-yl}-1,2-oxazol-5-yl)-3-methylbutanoyl]-4-hydroxy-N-[(1S)-1-[4-(4-methyl-1,3-thiazol-5-yl)phenyl]ethyl]pyrrolidine-2-carboxamide] | < 50% | > 100 nM | – | B (“B” indicates maximum degradation ≥ 50%)
